Laboratory results reported in patent publication US5753617A, “Peptide inhibitors of cellular adhesion” (Centocor, Inc., priority 1995, dated 1998).
Like-named read-outs stand apart in the source and are kept apart here. Where a SMILES comes first, the peptide text is derived from it. Bridges are numbered along the chain shown (N, C = ends). [ ]: non-standard residue; d: D form.

Tests used:
[1] = disulfide bond, water
[2] = target: T1, P-selectin (Homo sapiens, UniProt P16109); assay: Inhibition of human neutrophil adhesion to purified P-selectin immobilized on plastic wells; assay type: cell-based; settings: inhibiting the binding of human neutrophils to P-selectin
T1 construct: P-selectin is isolated from human platelet lysates; from tissue; host or cells: human platelets (outdated platelet packs from a blood bank)
T1 sequence (P16109 42-830): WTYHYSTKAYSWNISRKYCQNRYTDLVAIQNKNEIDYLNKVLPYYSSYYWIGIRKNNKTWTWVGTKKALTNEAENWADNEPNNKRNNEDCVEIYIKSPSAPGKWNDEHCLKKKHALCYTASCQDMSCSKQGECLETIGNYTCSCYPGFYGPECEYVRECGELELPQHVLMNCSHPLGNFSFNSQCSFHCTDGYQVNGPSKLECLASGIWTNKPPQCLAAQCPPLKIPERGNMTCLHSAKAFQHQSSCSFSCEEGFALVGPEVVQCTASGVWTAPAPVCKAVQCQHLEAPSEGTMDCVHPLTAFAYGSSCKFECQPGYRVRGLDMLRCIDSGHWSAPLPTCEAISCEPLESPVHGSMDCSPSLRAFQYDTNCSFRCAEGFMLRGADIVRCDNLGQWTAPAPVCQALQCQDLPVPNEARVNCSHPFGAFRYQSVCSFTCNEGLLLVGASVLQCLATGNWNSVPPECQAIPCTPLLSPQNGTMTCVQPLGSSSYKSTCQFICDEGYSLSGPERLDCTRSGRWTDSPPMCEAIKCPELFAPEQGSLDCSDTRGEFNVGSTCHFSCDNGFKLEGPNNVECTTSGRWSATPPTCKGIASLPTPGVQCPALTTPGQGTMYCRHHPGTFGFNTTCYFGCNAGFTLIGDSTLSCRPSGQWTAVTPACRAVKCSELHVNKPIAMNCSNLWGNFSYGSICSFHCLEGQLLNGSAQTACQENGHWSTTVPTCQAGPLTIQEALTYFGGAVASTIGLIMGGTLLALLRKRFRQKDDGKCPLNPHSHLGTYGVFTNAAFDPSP
How it was run: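 Isolated human neutrophils (2×10^5 per well) in HBSS with Ca2+/Mg2+ and HSA added to wells coated overnight at 4° C with platelet-derived P-selectin (5 micrograms/mL), HSA-blocked; 20 min at 22° C. Nonadherent cells removed by inverted centrifugation at 150 g; adherent cells quantified by myeloperoxidase activity.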

IC50 [2] [µM]	Compound	further results
75	CC(C)[C@@H](NC(=O)[C@@H](Cc1c[nH]c2ccccc12)NC(=O)[C@H](NC(=O)[C@@H](Cc1c[nH]c2ccccc12)NC(=O)[C@H]1CSSC[C@@H](NC(=O)[C@@H](CCCCN)NC(=O)[C@H](N)CCCNC(=N)N)C(=O)NCC(=O)N[C@@H](C)C(=O)N1)[C@H](C)O)C(N)=O [(38)] (H-[dR][dK][dC]GA[dC][dW][dT][dW][dV]-NH2; disulfide 3-6)	ring closure, yield of all isomers ([1]; from CC(C)[C@@H](NC(=O)[C@@H](Cc1c[nH]c2ccccc12)NC(=O)[C@H](NC(=O)[C@@H](Cc1c[nH]c2ccccc12)NC(=O)[C@@H](CS)NC(=O)[C@H](C)NC(=O)CNC(=O)[C@@H](CS)NC(=O)[C@@H](CCCCN)NC(=O)[C@H](N)CCCNC(=N)N)[C@H](C)O)C(N)=O, air/Cu wire, NH4OH, 3.31 mM, 20.0 h): 15.1%
30.6	CC(C)[C@@H](NC(=O)[C@@H](Cc1c[nH]c2ccccc12)NC(=O)[C@H](NC(=O)[C@@H](Cc1c[nH]c2ccccc12)NC(=O)[C@H]1CSSC[C@@H](NC(=O)[C@@H](CCCCN)NC(=O)[C@H](N)CCCNC(=N)N)C(=O)N[C@@H](CCCNC(=N)N)C(=O)N[C@@H](Cc2ccccc2)C(=O)N1)[C@H](C)O)C(N)=O [(39)] (H-[dR][dK][dC]RF[dC][dW][dT][dW][dV]-NH2; disulfide 3-6)	ring closure, yield of all isomers ([1]; from CC(C)[C@@H](NC(=O)[C@@H](Cc1c[nH]c2ccccc12)NC(=O)[C@H](NC(=O)[C@@H](Cc1c[nH]c2ccccc12)NC(=O)[C@@H](CS)NC(=O)[C@H](Cc1ccccc1)NC(=O)[C@H](CCCNC(=N)N)NC(=O)[C@@H](CS)NC(=O)[C@@H](CCCCN)NC(=O)[C@H](N)CCCNC(=N)N)[C@H](C)O)C(N)=O, DMSO, 0.315 mM, 25.0 °C, 96.0 h): 12.2%
26.2	CC(C)[C@@H](NC(=O)[C@@H](Cc1c[nH]c2ccccc12)NC(=O)[C@H](NC(=O)[C@@H](Cc1c[nH]c2ccccc12)NC(=O)[C@H]1CSSC[C@@H](NC(=O)[C@@H](CCCCN)NC(=O)[C@H](N)CCCNC(=N)N)C(=O)NCC(=O)N[C@@H](CC(N)=O)C(=O)N1)[C@H](C)O)C(N)=O [(41)] (H-[dR][dK][dC]GN[dC][dW][dT][dW][dV]-NH2; disulfide 3-6)	ring closure, yield of all isomers ([1]; from CC(C)[C@@H](NC(=O)[C@@H](Cc1c[nH]c2ccccc12)NC(=O)[C@H](NC(=O)[C@@H](Cc1c[nH]c2ccccc12)NC(=O)[C@@H](CS)NC(=O)[C@H](CC(N)=O)NC(=O)CNC(=O)[C@@H](CS)NC(=O)[C@@H](CCCCN)NC(=O)[C@H](N)CCCNC(=N)N)[C@H](C)O)C(N)=O, Cu wire, dilute NH4OH (printed NH2OH), pH 8, 3.2 mM, 20.0 h): 6%
944	CC(C)[C@@H](NC(=O)[C@@H](Cc1c[nH]c2ccccc12)NC(=O)[C@H](NC(=O)[C@@H](Cc1c[nH]c2ccccc12)NC(=O)[C@H]1CSSC[C@@H](NC(=O)[C@@H](CCCCN)NC(=O)[C@H](N)CCCNC(=N)N)C(=O)NCC(=O)N[C@@H](CC(=O)O)C(=O)N1)[C@H](C)O)C(N)=O [(42)] (H-[dR][dK][dC]GD[dC][dW][dT][dW][dV]-NH2; disulfide 3-6)	ring closure, yield of all isomers ([1]; from CC(C)[C@@H](NC(=O)[C@@H](Cc1c[nH]c2ccccc12)NC(=O)[C@H](NC(=O)[C@@H](Cc1c[nH]c2ccccc12)NC(=O)[C@@H](CS)NC(=O)[C@H](CC(=O)O)NC(=O)CNC(=O)[C@@H](CS)NC(=O)[C@@H](CCCCN)NC(=O)[C@H](N)CCCNC(=N)N)[C@H](C)O)C(N)=O, Cu wire, dilute NH4OH, pH 8, 3.19 mM, 20.0 h): 9.7%
263	CC(C)[C@@H](NC(=O)[C@@H](Cc1c[nH]c2ccccc12)NC(=O)[C@H](NC(=O)[C@@H](Cc1c[nH]c2ccccc12)NC(=O)[C@H]1CSSC[C@@H](NC(=O)[C@@H](CCCCN)NC(=O)[C@H](N)CCCNC(=N)N)C(=O)N[C@H](CCCNC(=N)N)C(=O)N[C@@H](Cc2ccccc2)C(=O)N1)[C@H](C)O)C(N)=O [(45)] (H-[dR][dK][dC][dR]F[dC][dW][dT][dW][dV]-NH2; disulfide 3-6)	ring closure, yield of all isomers ([1]; from CC(C)[C@@H](NC(=O)[C@@H](Cc1c[nH]c2ccccc12)NC(=O)[C@H](NC(=O)[C@@H](Cc1c[nH]c2ccccc12)NC(=O)[C@@H](CS)NC(=O)[C@H](Cc1ccccc1)NC(=O)[C@@H](CCCNC(=N)N)NC(=O)[C@@H](CS)NC(=O)[C@@H](CCCCN)NC(=O)[C@H](N)CCCNC(=N)N)[C@H](C)O)C(N)=O, DMSO, 0.357 mM, 25.0 °C, 48.0 h): 15.5%
7	CC(C)[C@@H](NC(=O)[C@@H](Cc1c[nH]c2ccccc12)NC(=O)[C@H](NC(=O)[C@@H](Cc1c[nH]c2ccccc12)NC(=O)[C@H]1CSSC[C@@H](NC(=O)[C@@H](CCCCN)NC(=O)[C@H](N)CCCNC(=N)N)C(=O)N[C@H](Cc2c[nH]cn2)C(=O)N[C@@H](Cc2ccccc2)C(=O)N1)[C@H](C)O)C(N)=O [(47)] (H-[dR][dK][dC][dH]F[dC][dW][dT][dW][dV]-NH2; disulfide 3-6)	ring closure, yield of all isomers ([1]; from CC(C)[C@@H](NC(=O)[C@@H](Cc1c[nH]c2ccccc12)NC(=O)[C@H](NC(=O)[C@@H](Cc1c[nH]c2ccccc12)NC(=O)[C@@H](CS)NC(=O)[C@H](Cc1ccccc1)NC(=O)[C@@H](Cc1c[nH]cn1)NC(=O)[C@@H](CS)NC(=O)[C@@H](CCCCN)NC(=O)[C@H](N)CCCNC(=N)N)[C@H](C)O)C(N)=O, DMSO, 0.698 mM, 24.0 h): 3.5%
10.3	CC[C@@H](C)[C@H]1NC(=O)CNC(=O)[C@H](NC(=O)[C@@H](CCCCN)NC(=O)[C@H](N)CCCNC(=N)N)CSSC[C@H](C(=O)N[C@H](Cc2c[nH]c3ccccc23)C(=O)N[C@@H](C(=O)N[C@H](Cc2c[nH]c3ccccc23)C(=O)N[C@@H](C(N)=O)C(C)C)[C@H](C)O)NC1=O [(52)] (H-[dR][dK][dC]G[dI][dC][dW][dT][dW][dV]-NH2; disulfide 3-6)	ring closure, yield of all isomers ([1]; from CC[C@@H](C)[C@@H](NC(=O)CNC(=O)[C@@H](CS)NC(=O)[C@@H](CCCCN)NC(=O)[C@H](N)CCCNC(=N)N)C(=O)N[C@H](CS)C(=O)N[C@H](Cc1c[nH]c2ccccc12)C(=O)N[C@@H](C(=O)N[C@H](Cc1c[nH]c2ccccc12)C(=O)N[C@@H](C(N)=O)C(C)C)[C@H](C)O, DMSO, 0.341 mM, 25.0 °C, 72.0 h): 16.6%
18.7	CC(C)C[C@H]1NC(=O)CNC(=O)[C@H](NC(=O)[C@@H](CCCCN)NC(=O)[C@H](N)CCCNC(=N)N)CSSC[C@H](C(=O)N[C@H](Cc2c[nH]c3ccccc23)C(=O)N[C@@H](C(=O)N[C@H](Cc2c[nH]c3ccccc23)C(=O)N[C@@H](C(N)=O)C(C)C)[C@H](C)O)NC1=O [(53)] (H-[dR][dK][dC]G[dL][dC][dW][dT][dW][dV]-NH2; disulfide 3-6)	ring closure, yield of all isomers ([1]; from CC(C)C[C@@H](NC(=O)CNC(=O)[C@@H](CS)NC(=O)[C@@H](CCCCN)NC(=O)[C@H](N)CCCNC(=N)N)C(=O)N[C@H](CS)C(=O)N[C@H](Cc1c[nH]c2ccccc12)C(=O)N[C@@H](C(=O)N[C@H](Cc1c[nH]c2ccccc12)C(=O)N[C@@H](C(N)=O)C(C)C)[C@H](C)O, DMSO, 0.252 mM, 25.0 °C, 48.0 h): 17.4%
59.7	CC(C)[C@@H](NC(=O)[C@@H](Cc1c[nH]c2ccccc12)NC(=O)[C@H](NC(=O)[C@@H](Cc1c[nH]c2ccccc12)NC(=O)[C@H]1CSSC[C@@H](NC(=O)[C@@H](CCCCN)NC(=O)[C@H](N)CCCNC(=N)N)C(=O)NCC(=O)N[C@H](CCCCN)C(=O)N1)[C@H](C)O)C(N)=O [(55)] (H-[dR][dK][dC]G[dK][dC][dW][dT][dW][dV]-NH2; disulfide 3-6)	ring closure, yield of all isomers ([1]; from CC(C)[C@@H](NC(=O)[C@@H](Cc1c[nH]c2ccccc12)NC(=O)[C@H](NC(=O)[C@@H](Cc1c[nH]c2ccccc12)NC(=O)[C@@H](CS)NC(=O)[C@@H](CCCCN)NC(=O)CNC(=O)[C@@H](CS)NC(=O)[C@@H](CCCCN)NC(=O)[C@H](N)CCCNC(=N)N)[C@H](C)O)C(N)=O, DMSO, 0.175 mM, 120.0 h): 10.6%
70.4	CC(C)[C@@H](NC(=O)[C@@H](Cc1c[nH]c2ccccc12)NC(=O)[C@H](NC(=O)[C@@H](Cc1c[nH]c2ccccc12)NC(=O)[C@H]1CSSC[C@@H](NC(=O)[C@@H](CCCCN)NC(=O)[C@H](N)CCCNC(=N)N)C(=O)N2CCC[C@@H]2C(=O)N[C@@H](Cc2ccccc2)C(=O)N1)[C@H](C)O)C(N)=O [(57)] (H-[dR][dK][dC][dP]F[dC][dW][dT][dW][dV]-NH2; disulfide 3-6)	ring closure, yield of all isomers ([1]; from CC(C)[C@@H](NC(=O)[C@@H](Cc1c[nH]c2ccccc12)NC(=O)[C@H](NC(=O)[C@@H](Cc1c[nH]c2ccccc12)NC(=O)[C@@H](CS)NC(=O)[C@H](Cc1ccccc1)NC(=O)[C@H]1CCCN1C(=O)[C@@H](CS)NC(=O)[C@@H](CCCCN)NC(=O)[C@H](N)CCCNC(=N)N)[C@H](C)O)C(N)=O, air, Cu wire, NH4OH, 0.42 mM, 25.0 °C, 6.0 h): 8.7%
